Values of other authors as cited in US20160228670A1, “SYSTEM FOR NITRIC OXIDE INHALATION” (ADVANCED […] (AIT) LTD., priority 2013, published 2016).
Like-named read-outs stand apart in the source and are kept apart here.

For `[N]=O` [NO, nitric oxide], the “t1/2 of NO to NO2” value (NO concentration in air 1 ppm) is listed as 3500 min, the “t1/2 of NO to NO2” value (NO concentration in air 10 ppm) is listed as 350 min and the “t1/2 of NO to NO2” value (NO concentration in air 100 ppm) is listed as 35 min. The “t1/2 of NO to NO2” value (NO concentration in air 1,000 ppm) was 3.5 min, the “t1/2 of NO to NO2” value (NO concentration in air 10,000 ppm) was 0.35 min and the “t1/2 of NO to NO2” value (NO concentration in air 20,000 ppm) was 0.175 min.
